{"source": "patent US6329342A", "about": "“Treatment of congestive heart failure with growth hormone secretagogues” (Eli Lilly and Company, priority 2000, dated 2001)", "key": {"heart failure": {"system": "heart failure", "settings": "cited from earlier work"}, "Pituitary cells": {"system": "Pituitary cells", "assay": "Pituitary Cell Culture Assay for Growth Hormone Secretion", "type": "cell-based, rat (male Sprague-Dawley)", "settings": "0.25 h, read-out: GH secretion EC50; heading: GH secretion EC50; rat anterior pituitary cells, 15 min at 37° C.; Examples Part 1", "from_the_text": "Thirty-two 250 g male Sprague-Dawley rats were used for each assay. The animals were killed by decapitation and anterior pituitaries were removed and placed into ice cold culture medium. The pituitaries were sectioned into eighths and enzymatically digested using trypsin (Sigma Chemical) to weaken connective tissue. Pituitary cells were dispersed by mechanical agitation, collected, pooled and then seeded into 24-well plates (300,000 cells/well). After 4 days of culture, the cells formed an even monolayer. Cells were then washed with medium and challenged to secrete GH by the addition of GH secretagogues to the medium. After 15 min at 37° C., the medium was removed and stored frozen until radioimmunoassays for rat GH were performed. Doses of secretagogue were added in quadruplicate. Compounds disclosed herein are active in the assay as described. Both EC50 and efficacy values were calculated by the 4-parameter logistic equation. Such values were pooled and represented as mean +/- standard error, when appropriate."}}}
{"smiles": "COc1ccccc1OCCNCC(O)COc1cccc2[nH]c3ccccc3c12", "note": "(stereo not drawn) [Carvedilol]", "values": [{"measurement": "mortality in patients", "setting": "heart failure", "result": "dramatic reductions in mortality in patients"}]}
{"smiles": "COC(=O)[C@@H]1CCCN1C(=O)C(c1ccccc1)n1cnc(NC(=O)[C@@H](COCc2ccccc2)NC(=O)C(C)(C)N)c1", "note": "(stereo partly drawn) [Example 6]", "values": [{"measurement": "EC50", "setting": "Pituitary cells", "result": 5.53, "unit": "µM"}]}
{"smiles": "COC(=O)[C@@H]1CCCN1C(=O)C(c1ccccc1)n1cnc(NC(=O)[C@H](COCc2ccccc2)NC(=O)C(C)(C)N)c1", "note": "(stereo partly drawn) [Example 8]", "values": [{"measurement": "EC50", "setting": "Pituitary cells", "result": 2.39, "unit": "µM"}]}
